Source: US20100022483A1, “Substituted Tetracycline Compounds” (Paratek Pharmaceuticals, Inc., priority 2008, published 2010)
Values after ≈ are worked out from the molar mass of the structure shown. Where two headings read alike, the source gives them in different places.

Tests used:
[1] = test system: gram positive bacteria; assay: In vitro anti-bacterial activity assay (broth dilution MIC), gram positive bacteria; type: cell-based, S. aureus; details: 18 h
In short: (§1)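 Broth dilution MIC following CLSI M7-A2: compounds serially diluted, log-phase test strains added to final ~5×10^5 CFU/ml, incubated ~18 hours at 35° C in ambient air. Plates read on microplate reader or visually; MIC is lowest concentration inhibiting growth.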

[2] = test system: gram negative bacteria; assay: In vitro anti-bacterial activity assay (broth dilution MIC), gram negative bacteria; type: cell-based, E. coli
In short: as §1

[3] = Mammalian cytotoxicity assay (resazurin), COS-1 cells; type: cell-based; details: African green monkey, read-out: Cytotox. COS-1
In short: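 Cells seeded overnight at 37° C., 5% CO2, then exposed to serial compound dilutions for 24 hours. Medium replaced with resazurin (0.042 mg/ml in PBS with Ca and Mg) for 2 hours plus 30 minutes dark at room temperature; fluorescence read at ex 535/em 590 nm, IC50 taken as 50% growth inhibition.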

[4] = in vitro; type: cell-based; details: Chinese hamster, Cytotox. CHO-K1
[5] = test system: 3T3 fibroblast cells; assay: In vitro phototoxicity assay (neutral red; UV light-treated vs dark control plates); type: cell-based; details: for Photo Toxicity UV Tox50: UV light 50 minutes; for Photo Toxicity Dark Tox50: dark control plate
In short: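 Neutral red viability readout (A535 after EtOH/acetic acid extraction) compares paired plates: one exposed 50 min to UV at 1.6–1.8 mW/cm^2, one held in darkness, both dosed with compound in HBSS and recovered overnight. 3T3 fibroblast cells used; phototoxicity taken as the difference.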

[6] = Staphylococcus aureus, S. aureus MRSA5, read-out: Median MIC's G+ S. aureus MRSA5
[7] = Staphylococcus aureus, S. aureus RN450, read-out: Median MIC's G+ S. aureus RN450
[8] = Streptococcus pneumoniae, S. pneumoniae 157E-Strep, read-out: Median MIC's G+ S. pneumoniae 157E-Strep
[9] = Escherichia coli, 18 h, E. coli D1 209, read-out: Median MIC's G− E. coli D1 209
[10] = Escherichia coli, 18 h, E. coli MG 1655, read-out: Median MIC's G− E. coli MG 1655
[11] = Escherichia coli, ATCC25922, 18 h, E. coli ATCC 25922, read-out: Median MIC's G− E. coli ATCC 25922
[12] = Pseudomonas aeruginosa, 18 h, P. aeruginosa K201 PAO6609, read-out: Median MIC's G− P. aeruginosa K201 PAO6609
[13] = Escherichia coli, 18 h, read-out: Median MIC's G− E. coli D1 209, E. coli D1 209
[14] = Escherichia coli, 18 h, read-out: Median MIC's G− E. coli MG 1655, E. coli MG 1655
[15] = Escherichia coli, ATCC25922, 18 h, read-out: Median MIC's G− E. coli ATCC 25922, E. coli ATCC 25922
[16] = Pseudomonas aeruginosa, 18 h, read-out: Median MIC's G− P. aeruginosa K201 PAO6609, P. aeruginosa K201 PAO6609

Row | Structure (SMILES) | MIC [1, 6] [µg/mL] | MIC [1, 7] [µg/mL] | MIC [1, 8] [µg/mL] | MIC [2, 9] [µg/mL] | MIC [2, 10] [µg/mL] | MIC [2, 11] [µg/mL] | MIC [2, 12] [µg/mL] | IC50 at 24 h [3] [µM] | IC50 at 24 h [4] [µM] | Photo Toxicity UV Tox50 [5] [µM] | Photo Toxicity Dark Tox50 [5] [µM] | MIC ([1]; Staphylococcus aureus, read-out: Median MIC's G+ S. aureus MRSA5) [µg/mL] | MIC ([1]; Staphylococcus aureus, read-out: Median MIC's G+ S. aureus RN450) [µg/mL] | MIC ([1]; Streptococcus pneumoniae, read-out: Median MIC's G+ S. pneumoniae 157E-Strep) [µg/mL] | MIC [2, 13] [µg/mL] | MIC [2, 14] [µg/mL] | MIC [2, 15] [µg/mL] | MIC [2, 16] [µg/mL]
1 | CN(C)CCCc1cccc(-c2ccc(O)c3c2C[C@H]2C[C@H]4[C@H](N(C)C)C(O)=C(C(N)=O)C(=O)[C@@]4(O)C(O)=C2C3=O)c1 [DJ] | 4 (≈ 6.95 µM) | 0.0625 (≈ 0.109 µM) | 0.06 (≈ 0.104 µM) | 2 (≈ 3.47 µM) | 8 (≈ 13.9 µM) | 2 (≈ 3.47 µM) | 64 (≈ 111 µM) | 141 | 119 | >200 | >200 | – | – | – | – | – | – | –
2 | CN1CCN(Cc2cccc(-c3ccc(O)c4c3C[C@H]3C[C@H]5[C@H](N(C)C)C(O)=C(C(N)=O)C(=O)[C@@]5(O)C(O)=C3C4=O)c2)CC1 [DK] | 4 (≈ 6.64 µM) | 0.0625 (≈ 0.104 µM) | 0.06 (≈ 0.0996 µM) | 2 (≈ 3.32 µM) | 4 (≈ 6.64 µM) | 1 (≈ 1.66 µM) | 64 (≈ 106 µM) | > 200 | 92.3 | >200 | >200 | – | – | – | – | – | – | –
3 | CN1CCN(C(=O)c2cccc(-c3ccc(O)c4c3C[C@H]3C[C@H]5[C@@H](N(C)C)C(O)=C(C(N)=O)C(=O)[C@@]5(O)C(O)=C3C4=O)c2)CC1 [D] | 64 (≈ 104 µM) | 32 (≈ 51.9 µM) | 4 (≈ 6.49 µM) | 64 (≈ 104 µM) | 64 (≈ 104 µM) | 64 (≈ 104 µM) | 64 (≈ 104 µM) | > 131 | > 131 | >130.51 | >130.51 | – | – | – | – | – | – | –
4 | CCN(CC)CCNC(=O)c1cccc(-c2ccc(O)c3c2C[C@H]2C[C@H]4[C@H](N(C)C)C(O)=C(C(N)=O)C(=O)[C@@]4(O)C(O)=C2C3=O)c1 [E, (4S,4aS,5aR,12aS)-7-[3-(2-Diethylamino-ethylcarbamoyl)-phenyl]-4-dimethylamino-3,10,12,12a-tetrahydroxy-1,1′-dioxo-1,4,4a,5,5a,6,11,12a-octahydro-naphthacene-2-carboxylic acid amide] | 16 (≈ 25.3 µM) | 0.5 (≈ 0.79 µM) | 0.125 (≈ 0.198 µM) | 64 (≈ 101 µM) | 8 (≈ 12.6 µM) | 8 (≈ 12.6 µM) | 64 (≈ 101 µM) | > 139 | > 139 | >138.88 | >138.88 | – | – | – | – | – | – | –
5 | CCCCNC(=O)c1cccc(-c2ccc(O)c3c2C[C@H]2C[C@H]4[C@H](N(C)C)C(O)=C(C(N)=O)C(=O)[C@@]4(O)C(O)=C2C3=O)c1 [F] | – | – | – | 64 (≈ 109 µM) | 64 (≈ 109 µM) | 64 (≈ 109 µM) | 64 (≈ 109 µM) | 15.2 | > 15.2 | >151.73 | >151.73 | 1 (≈ 1.7 µM) | 0.06 (≈ 0.102 µM) | 0.06 (≈ 0.102 µM) | – | – | – | –
6 | CN(C)[C@@H]1C(O)=C(C(N)=O)C(=O)[C@@]2(O)C(O)=C3C(=O)c4c(O)ccc(-c5cnc6ccccc6c5)c4C[C@H]3C[C@@H]12 [G] | 0.5 (≈ 0.923 µM) | 0.06 (≈ 0.111 µM) | 0.06 (≈ 0.111 µM) | 64 (≈ 118 µM) | 64 (≈ 118 µM) | 4 (≈ 7.39 µM) | 64 (≈ 118 µM) | 15.9 | 14.8 | 19.29 | >159.48 | – | – | – | – | – | – | –
7 | CN(C)[C@H]1C(O)=C(C(N)=O)C(=O)[C@@]2(O)C(O)=C3C(=O)c4c(O)ccc(-c5cnc6ccccc6c5)c4C[C@H]3C[C@@H]12 [H] | 2 (≈ 3.69 µM) | 0.5 (≈ 0.923 µM) | 0.25 (≈ 0.462 µM) | 64 (≈ 118 µM) | 64 (≈ 118 µM) | 64 (≈ 118 µM) | 64 (≈ 118 µM) | > 15.9 | > 15.9 | >159.48 | >159.48 | – | – | – | – | – | – | –
8 | CCOC(=O)CCNC(=O)c1cccc(-c2ccc(O)c3c2C[C@H]2C[C@H]4[C@H](N(C)C)C(O)=C(C(N)=O)C(=O)[C@@]4(O)C(O)=C2C3=O)c1 [I, 3-[3-((6aS,10S,10aS,11aR)-8-Carbamoyl-10-dimethylamino-4,6,6a,9-tetrahydroxy-5,7-dioxo-5,6a,7,10,10a,11,11a,12-octahydro-naphthacen-1-yl)-benzoylamino]-propionic acid ethyl ester] | 2 (≈ 3.16 µM) | 0.06 (≈ 0.0947 µM) | 3 (≈ 4.73 µM) | – | – | – | – | > 14.2 | > 14.2 | >141.76 | >141.76 | – | – | – | 64 (≈ 101 µM) | 64 (≈ 101 µM) | 64 (≈ 101 µM) | 64 (≈ 101 µM)
9 | CN(C)CC(=O)Nc1cccc(-c2ccc(O)c3c2C[C@H]2C[C@H]4[C@H](N(C)C)C(O)=C(C(N)=O)C(=O)[C@@]4(O)C(O)=C2C3=O)c1 [K, (4S,4aS,5aR,12aS)-4-Dimethylamino-7-[3-(2-dimethylamino-acetylamino)-phenyl]-3,10,12,12a-tetrahydroxy-1,11-dioxo-1,4,4a,5,5a,6,11,12a-octahydro-naphthacene-2-carboxylic acid amide] | 2 (≈ 3.39 µM) | 0.06 (≈ 0.102 µM) | 0.06 (≈ 0.102 µM) | 2 (≈ 3.39 µM) | 2 (≈ 3.39 µM) | 1 (≈ 1.69 µM) | 64 (≈ 108 µM) | > 12.8 | > 12.8 | >128.09 | >128.09 | – | – | – | – | – | – | –
10 | COCCNC(=O)c1cccc(-c2ccc(O)c3c2C[C@H]2C[C@H]4[C@H](N(C)C)C(O)=C(C(N)=O)C(=O)[C@@]4(O)C(O)=C2C3=O)c1 [L] | 1 (≈ 1.69 µM) | 0.06 (≈ 0.101 µM) | 0.06 (≈ 0.101 µM) | 64 (≈ 108 µM) | 32 (≈ 54.1 µM) | 8 (≈ 13.5 µM) | 64 (≈ 108 µM) | > 15.1 | > 15.1 | >151.25 | >151.25 | – | – | – | – | – | – | –
11 | CNCCNC(=O)c1cccc(-c2ccc(O)c3c2C[C@H]2C[C@H]4[C@H](N(C)C)C(O)=C(C(N)=O)C(=O)[C@@]4(O)C(O)=C2C3=O)c1 [M] | 64 (≈ 108 µM) | 4 (≈ 6.77 µM) | 32 (≈ 54.2 µM) | 64 (≈ 108 µM) | 64 (≈ 108 µM) | 64 (≈ 108 µM) | 64 (≈ 108 µM) | > 143 | > 143 | >143.16 | >143.16 | – | – | – | – | – | – | –
12 | CN(C)[C@@H]1C(O)=C(C(N)=O)C(=O)[C@@]2(O)C(O)=C3C(=O)c4c(O)ccc(-c5cccc(C(=O)NCCN)c5)c4C[C@H]3C[C@@H]12 [N] | 64 (≈ 111 µM) | 2 (≈ 3.47 µM) | 16 (≈ 27.7 µM) | 64 (≈ 111 µM) | 64 (≈ 111 µM) | 64 (≈ 111 µM) | 64 (≈ 111 µM) | > 46.8 | > 46.8 | 95.14 | >150.87 | – | – | – | – | – | – | –
13 | CCN(CC)CCNC(=O)c1cccc(-c2ccc(O)c3c2C[C@H]2C[C@H]4[C@@H](N(C)C)C(O)=C(C(N)=O)C(=O)[C@@]4(O)C(O)=C2C3=O)c1 [O] | 64 (≈ 101 µM) | 4 (≈ 6.32 µM) | 4 (≈ 6.32 µM) | 64 (≈ 101 µM) | 64 (≈ 101 µM) | 64 (≈ 101 µM) | 64 (≈ 101 µM) | > 135 | > 135 | >134.63 | >134.63 | – | – | – | – | – | – | –
14 | CN(C)CCCNC(=O)c1cccc(-c2ccc(O)c3c2C[C@H]2C[C@H]4[C@@H](N(C)C)C(O)=C(C(N)=O)C(=O)[C@@]4(O)C(O)=C2C3=O)c1 [P] | 64 (≈ 103 µM) | 4 (≈ 6.47 µM) | 8 (≈ 12.9 µM) | 64 (≈ 103 µM) | 64 (≈ 103 µM) | 64 (≈ 103 µM) | 64 (≈ 103 µM) | > 123 | > 123 | >122.9 | >122.9 | – | – | – | – | – | – | –
15 | CN(C)CCN(C)C(=O)c1cccc(-c2ccc(O)c3c2C[C@H]2C[C@H]4[C@H](N(C)C)C(O)=C(C(N)=O)C(=O)[C@@]4(O)C(O)=C2C3=O)c1 [R] | 64 (≈ 103 µM) | 0.5 (≈ 0.808 µM) | 0.25 (≈ 0.404 µM) | – | – | – | – | > 137 | > 137 | >137.36 | >137.36 | – | – | – | 64 (≈ 103 µM) | 15 (≈ 24.2 µM) | 32 (≈ 51.7 µM) | 64 (≈ 103 µM)
